According to US11884686B2, “Chelate compounds” (priority 2016, dated 2024):

Experiments:
[1] = Dissociation kinetics via Zn2+ transmetallation (T1 relaxation time); format: physicochemical; conditions: for nature of the kinetic dissociation curve, Zn2+ exchange: time dependent T1, 25° C., pH 5.1-5.7
Description: Kinetic inertness was evaluated at slightly acidic pH due to the slow rate of dissociation of the paramagnetic complex at physiological pH and to the potential hydrolysis of the metal ions at the concentrations used for the experiments and at pH values close to physiological.
The dissociation kinetics of Mn(II) based chelates (concentration 1 mM) of the invention was assessed via Zn^2+ transmetallation recording the time-dependent variation of the longitudinal relaxation time (i.e., T1). The assessment was completed in a set of experiments including for the prior art Mn Chelate different concentrations of competing metal ion (5, 10, 20, 40 equivalents of Zn^2+); at 25° C. and different pH (pH: 5.1; 5.4; 5.7). The dissociation kinetics for Mn Chelate 4 (concentration 1 mM) was assessed in the presence of 5 eq of Zn^2+ at 25° C. and pH 5.1 and 5.7. For both assessments, the reaction mixture contained 0.15 M NaCl and 50 mM N-methyl piperazin buffer (i.e., NMP). The longitudinal relaxation time changes were monitored at 1 MHz for the prior art Mn Chelate and at 0.01 MHz for Mn Chelate 4. Indeed, the release of the free Mn^2+ ion induced by Zn^2+ leads to a decrease of the relaxation time for both Mn(II) based chelates evaluated in all experimental conditions. […]
For any of the transmetallation experiments carried out with the prior art Mn Chelate (e.g., at different pH; different Zn^2+ or Cu^2+ concentration) it was evident that the variation of the relaxation rate T1 (for the Zn^2+-exchange; FIG. 4) or the variation of the UV-Vis absorbance (for the Cu^2+-exchange; FIG. 5) caused by competing metal ion was a “single phase” process better described as a mono-exponential function. […] The rate of dissociation described by kobs was calculated via equation (1) where [MnL]tot is the total concentration of Mn(II) based chelates and t is the observation time.

[2] = Dissociation kinetics via Cu2+ transmetallation (UV-Vis absorbance); format: physicochemical; conditions: pH = 5.0, CCu2+ 0.004 M, 25° C., 0.2 mM chelate

Structure (SMILES) | kinetic inertness from conversion, Zn2+ transmetallation ([1]; FIG. 11, versus prior art Mn Chelate) | nature of the kinetic dissociation curve, Zn2+ exchange [1] | kobs1 [2]
CN1CCN2Cc3cccc(n3)CN(CC1)C(CCC(=O)N(C)C[C@H](O)[C@@H](O)[C@H](O)[C@H](O)CO)C(=O)[O][Mn][O]C(=O)C2CCC(=O)N(C)C[C@H](O)[C@@H](O)[C@H](O)[C@H](O)CO (stereo partly shown) [Mn Chelate 4] | superior kinetic inertness | biphasic behaviour | 
CN1CCN2CC(=O)[O][Mn][O]C(=O)CN(CC1)Cc1cccc(n1)C2 [Prior Art Mn Chelate, reference compound] |  | single phase | 0.032 min⁻¹
